Experimental data from US8501936B2 (priority 2009, dated 2013).

What was measured:
human JAK2 = human JAK2 (Homo sapiens (Human), UniProt O60674); conditions: read-out: JAK2 IC50
human FAK = human FAK (Homo sapiens (Human), UniProt Q05397); conditions: read-out: FAK IC50
human FAK, sequence (Q05397 whole entry): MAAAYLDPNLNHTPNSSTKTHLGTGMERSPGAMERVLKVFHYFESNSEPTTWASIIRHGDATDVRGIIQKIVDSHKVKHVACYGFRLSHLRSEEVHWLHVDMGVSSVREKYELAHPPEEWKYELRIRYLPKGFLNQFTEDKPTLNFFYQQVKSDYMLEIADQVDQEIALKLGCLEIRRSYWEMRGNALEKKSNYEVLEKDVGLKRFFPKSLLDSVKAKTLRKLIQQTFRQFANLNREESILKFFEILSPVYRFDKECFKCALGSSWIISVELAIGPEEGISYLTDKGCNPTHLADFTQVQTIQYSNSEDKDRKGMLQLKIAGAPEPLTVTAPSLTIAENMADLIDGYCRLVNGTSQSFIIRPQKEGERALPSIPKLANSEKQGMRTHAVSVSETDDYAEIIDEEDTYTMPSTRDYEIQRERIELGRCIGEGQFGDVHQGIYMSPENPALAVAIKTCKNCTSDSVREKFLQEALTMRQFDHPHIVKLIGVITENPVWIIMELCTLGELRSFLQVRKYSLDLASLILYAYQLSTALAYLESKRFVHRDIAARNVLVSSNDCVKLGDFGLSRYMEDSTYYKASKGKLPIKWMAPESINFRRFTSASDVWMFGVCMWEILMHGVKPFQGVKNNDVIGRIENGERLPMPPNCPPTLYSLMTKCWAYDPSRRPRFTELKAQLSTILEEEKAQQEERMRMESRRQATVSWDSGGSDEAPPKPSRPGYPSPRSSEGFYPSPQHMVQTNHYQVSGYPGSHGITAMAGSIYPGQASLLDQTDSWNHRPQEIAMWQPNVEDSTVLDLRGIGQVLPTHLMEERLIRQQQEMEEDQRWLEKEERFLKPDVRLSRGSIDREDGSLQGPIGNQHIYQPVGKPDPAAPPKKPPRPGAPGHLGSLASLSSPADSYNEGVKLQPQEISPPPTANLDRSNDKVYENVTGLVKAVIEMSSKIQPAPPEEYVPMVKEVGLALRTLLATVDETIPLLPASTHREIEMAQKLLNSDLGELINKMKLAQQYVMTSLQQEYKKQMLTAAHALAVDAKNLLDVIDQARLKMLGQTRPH
Method: The ability of compounds to inhibit the kinase activity of baculovirus-expressed human FAK and PYK2 was measured using the 96-well plate TRF assay system described above for JAK2. […] For the FAK kinase assay, the reaction mixture (total volume=100 μL/well) contained 20 mM HEPES (pH 7.2), 10 μM ATP, 5 mM MgCl2, 0.5 mM DTT, 0.1% BSA, and test compound (diluted in DMSO; 2.5% DMSO final in assay). For PYK2, the 100 μL assay solution consisted of 20 mM HEPES (pH 7.2), 3 μM ATP, 5 mM MnCl2, 0.1% BSA, and test compound (diluted in DMSO; 2.5% DMSO final in assay). Enzyme (10 ng/mL FAK or 25 ng/mL PYK2) was added and the reaction was allowed to proceed at room temperature for 30 min. Detection of the phosphorylated product was performed by adding 100 μL/well of Eu—N1 labeled PY100 antibody diluted 1:75000 in 0.25% BSA in TBS-T (PerkinElmer #AD0041). […] Inhibition data were analyzed using ActivityBase and IC50 curves generated using XLFit.

human JAK2, sequence (O60674 815-1132): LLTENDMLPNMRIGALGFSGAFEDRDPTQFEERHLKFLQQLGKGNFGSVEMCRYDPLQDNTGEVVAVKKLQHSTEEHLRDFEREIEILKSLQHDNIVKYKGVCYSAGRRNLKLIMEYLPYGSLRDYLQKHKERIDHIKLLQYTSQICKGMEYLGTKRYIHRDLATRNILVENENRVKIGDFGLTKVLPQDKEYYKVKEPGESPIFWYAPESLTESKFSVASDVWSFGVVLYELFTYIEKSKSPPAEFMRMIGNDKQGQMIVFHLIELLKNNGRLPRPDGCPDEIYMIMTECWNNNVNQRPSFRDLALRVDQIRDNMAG

Row | SMILES | IC50 (human JAK2) [nM] | IC50 (human FAK) [nM]
1 | CN1CCC(c2ccc(Nc3nc4c(NCc5cccnc5N(C)S(C)(=O)=O)cccn4n3)cc2)CC1 [Example 123, N-Methyl-N-[3-({2-[4-(1-methyl-piperidin-4-yl)-phenylamino]-[1,2,4]triazolo[1,5-a]pyridin-8-ylamino}-methyl)-pyridin-2-yl]-methanesulfonamide] | 40.3 | 77.3
2 | CS(=O)(=O)c1ccc(-c2cccn3nc(Nc4cccc(N5CCN(CCO)CC5)c4)nc23)cc1 [Example 152, 2-(4-{3-[8-(4-Methanesulfonyl-phenyl)-[1,2,4]triazolo[1,5-a]pyridin-2-ylamino]-phenyl}-piperazin-1-yl)-ethanol] | 2.37 | 999
3 | CN1CCN(c2cccc(Nc3nc4c(-c5ccc(S(C)(=O)=O)cc5)cccn4n3)c2)CC1 [Example 35, [8-(4-Methanesulfonyl-phenyl)-[1,2,4]triazolo[1,5-a]pyridin-2-yl]-[3-(4-methyl-piperazin-1-yl)-phenyl]-amine] | 1.3 | 1060
4 | CS(=O)(=O)c1ccc(-c2cccn3nc(NCc4ccccn4)nc23)cc1 [Example 409, [8-(4-Methanesulfonyl-phenyl)-[1,2,4]triazolo[1,5-a]pyridin-2-yl]-pyridin-2-ylmethyl-amine] | 6500 | 10000
5 | COc1ccc(C(F)(F)F)cc1-c1cccn2nc(Nc3ccc4c(c3)CCN(CC(=O)N(C)C)C4)nc12 [Example 338, 2-{6-[8-(2-Methoxy-5-trifluoromethyl-phenyl)-[1,2,4]-triazolo[1,5-a]pyridin-2-ylamino]-3,4-dihydro-1H-isoquinolin-2-yl}-N,N-dimethyl-acetamide] | 41.4 | 1370
6 | CN(c1ccc(-c2cccn3nc(Nc4ccc(CN5CCS(=O)(=O)CC5)cc4)nc23)cc1)S(C)(=O)=O [Example 119, N-{4-[2-({4-[(1,1-dioxidothiomorpholin-4-yl)methyl]phenyl}amino)[1,2,4]triazolo[1,5-a]pyridin-8-yl]phenyl}-N-methylmethanesulfonamide] | 0.27 | 10000
7 | COc1ccc(C(F)(F)F)cc1-c1cccn2nc(Nc3ccc(OCCN4CCOCC4)cc3)nc12 [Example 258, [8-(2-Methoxy-5-trifluoromethyl-phenyl)-[1,2,4]triazolo[1,5-a]pyridin-2-yl]-[4-(2-morpholin-4-yl-ethoxy)-phenyl]-amine] | 84.5 | 6500
8 | CN1CCN(Cc2ccc(Nc3nc4cccc(-c5ccc(S(C)(=O)=O)cc5)n4n3)cc2)CC1 [Example 86, [5-(4-Methanesulfonyl-phenyl)-[1,2,4]triazolo[1,5-a]pyridin-2-yl]-[4-(4-methyl-piperazin-1-ylmethyl)-phenyl]-amine] | 1.7 | 264
9 | CN(c1ccccc1CNc1cccn2nc(Nc3ccccc3)nc12)S(C)(=O)=O [Example 202, N-Methyl-N-{2-[(2-phenylamino-[1,2,4]triazolo[1,5-a]pyridin-8-ylamino)-methyl]-phenyl}-methanesulfonamide] | 571 | 189
10 | CC(C)(O)CN1CCN(c2cccc(Nc3nc4c(-c5ccc(S(C)(=O)=O)cc5)cccn4n3)c2)CC1 [Example 144, 1-(4-{3-[8-(4-Methanesulfonyl-phenyl)-[1,2,4]triazolo[1,5-a]pyridin-2-ylamino]-phenyl}-piperazin-1-yl)-2-methyl-propan-2-ol] | 2.61 | 2050
11 | CP(C)(=O)c1ccc(-c2cccn3nc(N(CCS(C)(=O)=O)c4cccc(C5CCN(CCS(C)(=O)=O)CC5)c4)nc23)cc1 [Example 199, {8-[4-(Dimethyl-phosphinoyl)-phenyl]-[1,2,4]triazolo[1,5-a]pyridin-2-yl}-(2-methanesulfonyl-ethyl)-{3-[1-(2-methanesulfonyl-ethyl)-piperidin-4-yl]-phenyl}-amine] | 95.8 | 10000
12 | CS(=O)(=O)c1ccc(-c2cccn3nc(Nc4ccc(CN5CCOCC5)cc4)nc23)cc1 [Example 43, [8-(4-Methanesulfonyl-phenyl)-[1,2,4]triazolo[1,5-a]pyridin-2-yl]-(4-morpholin-4-ylmethyl-phenyl)-amine] | 2.2 | 1170
13 | CN1CCN(c2cccc(Nc3nc4c(Nc5cccnc5N(C)S(C)(=O)=O)cccn4n3)c2)CC1 [Example 111, N-Methyl-N-(3-{2-[3-(4-methyl-piperazin-1-yl)-phenylamino]-[1,2,4]triazolo[1,5-a]pyridin-8-ylamino}-pyridin-2-yl)-methanesulfonamide] | 60.3 | 2000
14 | COc1ccc(-c2cccn3nc(Nc4ccc(N5CCOCC5)cc4)nc23)cn1 [Example 8, [8-(6-Methoxy-pyridin-3-yl)-[1,2,4]triazolo[1,5-a]pyridin-2-yl]-(4-morpholin-4-yl-phenyl)-amine] | 13.4 | 1480
15 | CN1CCN(Cc2ccc(Nc3nc4cccc(-c5cccc(S(C)(=O)=O)c5)n4n3)cc2)CC1 [Example 88, [5-(3-Methanesulfonyl-phenyl)-[1,2,4]triazolo[1,5-a]pyridin-2-yl]-[4-(4-methyl-piperazin-1-ylmethyl)-phenyl]-amine] | 11.7 | 1030
16 | CS(=O)(=O)c1ccc(-c2cccn3nc(Nc4cccc(N5CCN(CC(N)=O)CC5)c4)nc23)cc1 [Example 183, 2-(4-{3-[8-(4-Methanesulfonyl-phenyl)-[1,2,4]triazolo[1,5-a]pyridin-2-ylamino]-phenyl}-piperazin-1-yl)-acetamide] | 0.65 | 6500
17 | CS(=O)(=O)c1ccc(-c2cccn3nc(Nc4cnn(CCN5CCCC5)c4)nc23)cc1 [Example 219, [8-(4-Methanesulfonyl-phenyl)-[1,2,4]triazolo[1,5-a]pyridin-2-yl]-(1-(2-pyrrolidin-1-yl-ethyl)-1H-pyrazol-4-yl]-amine] | 13.9 | 10000
18 | CS(=O)(=O)c1ccc(-c2cccn3nc(Nc4ccc(CN5CCS(=O)(=O)CC5)cc4)nc23)cc1 [Example 114, N-{4-[(1,1-dioxidothiomorpholin-4-yl)methyl]phenyl}-8-[4-(methylsulfonyl)phenyl][1,2,4]triazolo[1,5-a]pyridin-2-amine] | 0.75 | 1480
19 | CN1CCN(c2cccc(Nc3nc4cccc(-c5ccc(CN6CCS(=O)(=O)CC6)cc5)n4n3)c2)CC1 [Example 71, 5-{4-[(1,1-dioxidothiomorpholin-4-yl)methyl]phenyl}-N-[3-(4-methylpiperazin-1-yl)phenyl][1,2,4]triazolo[1,5-a]pyridin-2-amine] | 0.8 | 502
20 | CN1CCN(c2cccc(Nc3nc4c(-c5ccc(N(C)S(C)(=O)=O)cc5)cccn4n3)c2)CC1 [Example 63, N-Methyl-N-(4-{2-[3-(4-methyl-piperazin-1-yl)-phenylamino]-[1,2,4]triazolo[1,5-a]pyridin-8-yl}-phenyl)-methanesulfonamide] | 0.6 | 1350
21 | CN1CCN(c2ccc(Nc3nc4c(/C=C/c5ccccc5N(C)S(C)(=O)=O)cccn4n3)cc2)CC1 [Example 196, N-Methyl-N-[2-((E)-2-{2-[4-(4-methyl-piperazin-1-yl)-phenylamino]-[1,2,4]triazolo[1,5-a]pyridin-8-yl}-vinyl)-phenyl]-methanesulfonamide] | 32.1 | 999
